Test results reported in PubChem BioAssay AID651836 (Sanford-Burnham Center for Chemical Genomics, 2012).
Several values for one entry are separate records, joined by “and”; a condition that tells them apart may be missing. Identical values can stand only once. Activity calls are given as the source filed them. How the calls were made is not given here.

System: Gli-SUFU luciferase reporter cells, luminescence
Assay: Gli-SUFU pathway antagonists, SAR follow-up, cell-based, luciferase luminescence, set 1 (AID 651836)

O=C(Nc1cc(N2CCCCC2)ncn1)c1ccc2ccccc2c1 was tested, and the IC50 was > 11.7 µM (inactive).
For CCC(C)Nc1cc(NC(=O)c2ccccc2)ncn1 (stereo unspecified), the IC50 was > 11.7 µM (inactive).
In the case of COc1cc(OC)cc(C(=O)Nc2cc(Nc3cccc(Cl)c3)ncn2)c1, the IC50 is reported as > 11.7 µM (inactive).
An IC50 of 0.037 µM was found for CC1CCN(c2cc(NC(=O)c3ccccc3)ncn2)CC1 in this work.
An IC50 of 0.0741 µM was found for O=C(Nc1cc(N2CCCCCC2)ncn1)c1ccccc1 in this work.
For Cc1nc(NC(=O)c2ccccc2)cc(N2CCCC2)n1, the IC50 was > 11.7 µM (inactive).
COc1cc(OC)cc(C(=O)Nc2cc(N3CCCCC3)ncn2)c1 was tested, and the IC50 was > 11.7 µM (inactive).
In the case of CN(C)c1cc(NC(=O)c2ccccc2F)ncn1, the IC50 is reported as > 11.7 µM (inactive).
An IC50 of 0.176 µM was found for O=C(Nc1cc(N2CCCCC2)ncn1)c1ccccc1F in this work.
CC(C)Nc1cc(NC(=O)c2ccccc2)ncn1 was tested, and the IC50 was > 11.7 µM (inactive).
In the case of O=C(Nc1cc(N2CCCCC2)ncn1)c1cccc(F)c1, the IC50 is reported as > 11.7 µM (inactive).
For O=C(Nc1cc(N2CCCCC2)ncn1)c1cccs1, the IC50 was > 11.7 µM (inactive).
With CN1CCN(c2cc(NC(=O)c3ccccc3)ncn2)CC1 the IC50 was > 11.7 µM (inactive).
With O=C(Nc1cc(N2CCCC2)ncn1)c1ccccc1F the IC50 was > 11.7 µM (inactive).
With CC1CCCCN1c1cc(NC(=O)c2ccccc2)ncn1 (stereo unspecified) the IC50 was > 11.7 µM (inactive).
O=C(Nc1cc(N2CCCCC2)ncn1)c1ccc(Br)o1 was tested, and the IC50 was > 11.7 µM (inactive).
In the case of CCN(CC)c1cc(NC(=O)c2cccc(C#N)c2)ncn1, the IC50 is reported as > 11.7 µM (inactive).
An IC50 of 0.556 µM was found for CCN(CC)c1cc(NC(=O)c2ccccc2F)ncn1 in this work.
Cc1nc(NC(=O)c2ccccc2)cc(N2CCCCC2)n1 was tested, and the IC50 was > 11.7 µM (inactive).
For N#Cc1ccc(C(=O)Nc2cc(N3CCCCC3)ncn2)cc1, the IC50 was > 11.7 µM (inactive).
For O=C(Nc1cc(N2CCCCC2)ncn1)c1ccco1, the IC50 was > 11.7 µM (inactive).
For CN(C)c1cc(NC(=O)c2ccccc2)ncn1, the IC50 was > 11.7 µM (inactive).
For COc1cc(OC)cc(C(=O)Nc2cc(N3CCCC3)ncn2)c1, the IC50 was > 11.7 µM (inactive).
With CC(C)(C)Nc1cc(NC(=O)c2ccccc2)ncn1 the IC50 was > 11.7 µM (inactive).
O=C(Nc1cc(N2CCCCC2)ncn1)c1ccccc1 was tested, and the IC50 was 0.0566 µM and 0.0242 µM.
In the case of CCN(CC)c1cc(NC(=O)c2cccc(F)c2)ncn1, the IC50 is reported as > 11.7 µM (inactive).
CN(C)c1cc(NC(=O)c2cccc(C#N)c2)ncn1 was tested, and the IC50 was > 11.7 µM (inactive).
For O=C(Nc1cc(N2CCCCC2)ncn1)c1cccc2ccccc12, the IC50 was > 11.7 µM (inactive).
In the case of O=C(Nc1cc(N2CCCC2)ncn1)c1cccc(F)c1, the IC50 is reported as > 11.7 µM (inactive).
For CCN(CC)c1cc(NC(=O)c2ccccc2)nc(C)n1, the IC50 was > 11.7 µM (inactive).
With CCN(CC)c1cc(NC(=O)c2ccc(Br)o2)ncn1 the IC50 was > 11.7 µM (inactive).
In the case of O=C(Nc1cc(N2CCCCC2)ncn1)c1ccsc1, the IC50 is reported as > 11.7 µM (inactive).
An IC50 of 0.0378 µM was found for CCOc1ccc(-c2nc(CSCC(=O)NC3CC3)c(C)o2)cc1 in this work.
For CC(C)CNc1cc(NC(=O)c2ccccc2)ncn1, the IC50 was > 11.7 µM (inactive).
For CC(C)(C)OC(=O)N1CCN(c2cc(NC(=O)c3ccccc3)ncn2)CC1, the IC50 was > 11.7 µM (inactive).
With Cc1nc(NC(=O)c2ccccc2)cc(N(C)C)n1 the IC50 was > 11.7 µM (inactive).
In the case of O=C(Nc1cc(NCC2CCCO2)ncn1)c1ccccc1 (stereo unspecified), the IC50 is reported as > 11.7 µM (inactive).
With O=C(Nc1cc(N2CCCCC2)ncn1)c1ccc(Cl)cc1 the IC50 was > 11.7 µM (inactive).
For CN(C)c1cc(NC(=O)c2cccc(F)c2)ncn1, the IC50 was > 11.7 µM (inactive).
For COc1cccc(C(=O)Nc2cc(N3CCCCC3)ncn2)c1, the IC50 was > 11.7 µM (inactive).
O=C(Nc1cc(N2CCCC2)ncn1)c1ccccc1 was tested, and the IC50 was > 11.7 µM (inactive).
With O=C(Nc1cc(N2CCSCC2)ncn1)c1ccccc1 the IC50 was > 11.7 µM (inactive).
With O=C(Nc1cc(N2CCCCC2)ncn1)c1ccc(C(F)(F)F)cc1 the IC50 was > 11.7 µM (inactive).
For O=C(Nc1cc(N2CCCCC2)ncn1)c1cc2ccccc2s1, the IC50 was > 11.7 µM (inactive).
With CC(C)CNc1cc(NC(=O)c2cccc(F)c2)ncn1 the IC50 was > 11.7 µM (inactive).
With CCCCNc1cc(NC(=O)c2ccccc2)ncn1 the IC50 was > 11.7 µM (inactive).
For O=C(Nc1cc(N2CCNCC2)ncn1)c1ccccc1, the IC50 was > 11.7 µM (inactive).
For CCN(CC)c1cc(NC(=O)c2cc(OC)cc(OC)c2)ncn1, the IC50 was > 11.7 µM (inactive).
With CCCCN(C)c1cc(NC(=O)c2ccccc2)ncn1 the IC50 was > 11.7 µM (inactive).
With CCN(CC)c1cc(NC(=O)c2ccccc2)ncn1 the IC50 was > 11.7 µM (inactive).
In the case of O=C(Nc1cc(N2CCOCC2)ncn1)c1ccccc1, the IC50 is reported as > 11.7 µM (inactive).
In the case of O=C(Nc1cc(N2CCCCC2)ncn1)c1ccccc1C(F)(F)F, the IC50 is reported as > 11.7 µM (inactive).
An IC50 of 0.636 µM was found for CCOc1ccc(S(=O)(=O)NCc2ccncc2)cc1NC(=O)c1ccccc1 in this work.
With N#Cc1cccc(C(=O)Nc2cc(N3CCCCC3)ncn2)c1 the IC50 was > 11.7 µM (inactive).
In the case of COc1cc(OC)cc(C(=O)Nc2cc(N(C)C)ncn2)c1, the IC50 is reported as > 11.7 µM (inactive).
With Cc1ccc(C(=O)Nc2cc(N3CCCCC3)ncn2)cc1 the IC50 was > 11.7 µM (inactive).
